What all share (format): cell-based
Experiment [1] relates to S. pneumoniae 11733. Briefly: MIC, broth dilution method, S. pneumoniae. The conditions noted are these: Streptococcus pneumoniae, 11733; Gram-positive bacteria; in vitro, broth dilution; read-out: MIC S. pneumoniae 11733. The procedure: (§1) Minimum Inhibition Concentration (MIC), Broth Dilution Method:
(§2) The compounds of the present invention were tested against an assortment of Gram positive and Gram negative organisms using standard microtitration techniques well known to those skilled in the art. Cultures of bacteria are initially brought up from the freezer by streaking a loopful onto agar plates under the appropriate conditions. For instance bacterial stocks are streaked onto chocolate agar and then incubated for 18 hours at 35-37° C. in a 5% CO2 incubator. Five to ten colonies are picked from the chocolate agar plate for subculture to Brain-Heart infusion (BHI) broth, Mueller Hinton broth, or BHI containing 4% serum and incubated under the appropriate conditions. The ability of the test compound to act as an antimicrobial is determined by the ability to inhibit bacterial growth in vitro. The optical density of the culture of organisms in the presence of an active compound is compared to the optical density of the same organism untreated. The activity of the compounds is described as either negative or the lowest concentration inhibiting growth (Minimum Inhibitory Concentration [MIC]).

Experiment [2] relates to S. aureus 29213. Briefly: MIC, broth dilution method, S. aureus. The settings on record: Staphylococcus aureus, 29213; Gram-positive bacteria; in vitro, broth dilution; read-out: MIC S. aureus 29213. On the procedure: as §1, §2
Experiment [3] has as its system E. coli 43888. Briefly: MIC, broth dilution method, E. coli. The settings on record: Escherichia coli, 43888; Gram-negative bacteria; in vitro, broth dilution; read-out: MIC E. coli 43888. On the procedure: as §1, §2
Background: Dilution methods test growth across graded concentrations, often in twofold steps.

In experiment [4] the test system is H. influenzae 43095. Briefly: MIC, broth dilution method, H. influenzae. The conditions noted are these: Haemophilus influenzae, 43095; Gram-negative bacteria; in vitro, broth dilution; read-out: MIC H. influenzae 43095. On the procedure:
as §1, §2

Values after ≈ are worked out from the molar mass of the structure shown.

For `Cc1ccc(Oc2ccc(-n3cc(C(=O)O)cn3)cc2)c(O)c1` [Example 71, 1-[4-(2-Hydroxy-4-methyl-phenoxy)-phenyl]-1H-pyrazole-4-carboxylic acid], the MIC in experiment [1] was 12.5 µg/mL (≈ 40.3 µM); in experiment [2], 3.1 µg/mL (≈ 9.99 µM); in experiment [3] it was above 25 µg/mL; in experiment [4], 25 µg/mL (≈ 80.6 µM).
Consider `Oc1cc(F)ccc1Oc1ccc(Cl)cc1-c1nnn[nH]1` [Example 18, 2-[4-Chloro-2-(1H-tetrazol-5-yl)-phenoxy]-5-fluoro-phenol and 2-[4-chloro-2-(2H-tetrazol-5-yl)-phenoxy]-5-fluoro-phenol], for which the MIC was determined as 0.25 µg/mL (≈ 0.815 µM) in experiment [1], 0.125 µg/mL (≈ 0.408 µM) in experiment [2], 7.9 µg/mL (≈ 25.8 µM) in experiment [3] and 4 µg/mL (≈ 13 µM) in experiment [4].
The matching figures for `Cc1ccc(Oc2ccccc2-c2ncon2)c(O)c1` [Example 43, 5-Methyl-2-(2-[1,2,4]oxadiazol-3-yl-phenoxy)-phenol]: 15.7 µg/mL (≈ 58.5 µM), 0.5 µg/mL (≈ 1.86 µM), 0.5 µg/mL (≈ 1.86 µM) and 4 µg/mL (≈ 14.9 µM).
As for `CCOC(=O)c1nc(-c2ccccc2Oc2ccc(Cl)cc2O)no1` [Example 51, 3-[2-(4-Chloro-2-hydroxy-phenoxy)-phenyl]-[1,2,4]oxadiazole-5-carboxylic acid ethyl ester], the MIC in experiment [1] was above 25 µg/mL; in experiment [2] it was 0.4 µg/mL (≈ 1.11 µM); in experiment [3], 6.2 µg/mL (≈ 17.2 µM); in experiment [4] it was 3.1 µg/mL (≈ 8.59 µM).
On the same counts, the results for `Cc1ccc(Oc2ccc(NN)cc2)c(O)c1` [Example 67, 2-(4-Hydrazino-phenoxy)-5-methyl-phenol] are 6.2 µg/mL (≈ 26.9 µM), 0.1 µg/mL (≈ 0.434 µM), 0.4 µg/mL (≈ 1.74 µM) and 0.1 µg/mL (≈ 0.434 µM).
The matching figures for `Oc1cc(F)ccc1Oc1ccccc1-c1ncon1` [Example 42, 5-Fluoro-2-(2-[1,2,4]oxadiazol-3-yl-phenoxy)-phenol]: above 32 µg/mL, 1 µg/mL (≈ 3.67 µM), 1 µg/mL (≈ 3.67 µM) and 1 µg/mL (≈ 3.67 µM).
With `Oc1cc(F)ccc1Oc1ccc(Cl)cc1-c1ncon1` [Example 44, 2-(4-Chloro-2-[1,2,4]oxadiazol-3-yl-phenoxy)-5-fluoro-phenol], the MIC in experiment [1] was above 32 µg/mL; in experiment [2] it was 0.5 µg/mL (≈ 1.63 µM); in experiment [3], 2 µg/mL (≈ 6.52 µM); in experiment [4] it was 2 µg/mL (≈ 6.52 µM).
Consider `Cc1ccc(Oc2ccc(-c3ncon3)cc2)c(O)c1` [Example 45, 5-Methyl-2-(4-[1,2,4]oxadiazol-3-yl-phenoxy)-phenol], for which the MIC was 1 µg/mL (≈ 3.73 µM) in experiment [1], 0.5 µg/mL (≈ 1.86 µM) in experiment [2], 1 µg/mL (≈ 3.73 µM) in experiment [3] and 4 µg/mL (≈ 14.9 µM) in experiment [4].
Regarding `Cc1ccc(Oc2ccc(-c3nnc(N)o3)cc2)c(O)c1` [Example 24, 2-[4-(5-Amino-[1,3,4]oxadiazol-2-yl)-phenoxy]-5-methyl-phenol], the MIC in experiment [1] came to 12.5 µg/mL (≈ 44.1 µM); in experiment [2], 0.8 µg/mL (≈ 2.82 µM); in experiment [3], 6.2 µg/mL (≈ 21.9 µM); in experiment [4], 12.5 µg/mL (≈ 44.1 µM).
`Cc1ccc(Oc2ccc(/C(N)=N/O)cc2)c(O)c1` [Example 30, N-Hydroxy-4-(2-hydroxy-4-methyl-phenoxy)-benzamidine]: the MIC in experiment [1] came to 62.5 µg/mL (≈ 242 µM); in experiment [2], 4 µg/mL (≈ 15.5 µM); in experiment [3], 0.5 µg/mL (≈ 1.94 µM); in experiment [4], 31.3 µg/mL (≈ 121 µM).
The matching figures for `Cc1ccc(Oc2ccc(-c3ccco3)cc2O)c(O)c1` [Example 4, 2-(2-Hydroxy-4-methyl-phenoxy)-5-(furan-2-yl)-phenol]: 1 µg/mL (≈ 3.54 µM), 2 µg/mL (≈ 7.08 µM), 0.5 µg/mL (≈ 1.77 µM) and 7.9 µg/mL (≈ 28 µM).
With `Cc1ccc(Oc2ccc(-c3noc(C(=O)O)n3)cc2)c(O)c1` [Example 40, 3-[4-(2-Hydroxy-4-methyl-phenoxy)-phenyl]-[1,2,4]oxadiazole-5-carboxylic acid], the MIC in experiment [1] was 16 µg/mL (≈ 51.2 µM); in experiment [2], 4 µg/mL (≈ 12.8 µM); in experiment [3] it was 8 µg/mL (≈ 25.6 µM); in experiment [4] it was 4 µg/mL (≈ 12.8 µM).

The record behind these values is patent US20060211697A1, “2-(2 Or 4-substituted aryloxy)-phenol derivatives as antibacterial agents” (priority 2004, published 2006).
